Test results from patent publication US20110190324A1, “METHODS OF TREATING ATHEROSCLEROSIS” (priority 2008, published 2011).
Entries after “also recorded” stand apart in the source; their conditions may differ.

Key:
Format in all cases: cell-based, human
[1] = tested on: HIF-1α protein; test: HIF-1α protein accumulation, western blot; settings: foam cells; for Antagonism of adenosine induced HIF-1α protein accumulation: hypoxia, adenosine 100 μM, antagonist 100 nM
Description: Hypoxic exposures were done in a modular incubator chamber and flushed with a gas mixture containing 1% O2, 5% CO2 and balance N2 (MiniGalaxy, RSBiotech, Irvine, Scotland).
U937 cells were induced to differentiate into macrophages by treatment with phorbol myristate acetate (PMA, 40 nM) for 72 h. […] All dialyses were carried out with Pierce Slide-A-Lyzer cassettes (10,000 molecular wheight cut-off).
Whole cell lysates were prepared as described previously (27). […] In experiments aimed to detect HIF, western blot analyses were performed using antibody against HIF-1a (1:250 dilution) and HIF-1β (1:1000 dilution) in 5% non-fat dry milk in PBS/0.1% Tween-20 overnight at 4° C. The protein concentration was determined using BCA protein assay kit (Pierce, Rockford, Ill.). Tubulin (1:250) was used to ensure equal protein loading. Immunoreactivity was assessed and quantified by using a VersaDoc Imaging System (Bio-Rad).

[2] = tested on: IL-8; test: IL-8 secretion by U937 derived foam cells, ELISA
Description: (§1) U937 cells were induced to differentiate into macrophages by treatment with phorbol myristate acetate (PMA, 40 nM) for 72 h. Before use oxLDL was dialyzed against 1 L of 0.15 M sodium chloride and 0.3 mM EDTA (pH 7.4) for 12 h at 4° C., then against RPMI 1640 medium (two changes, 1 L/each change) for 24 h. All dialyses were carried out with Pierce Slide-A-Lyzer cassettes (10,000 molecular wheight cut-off). After dialysis, lipoproteins were sterilized by passing them through a 0.45 μm (pore-size) filter, then added (50-100 μg/mL, Intracel, Frederick, Md.) to PMA-treated U937 cells and incubated in serum-free RPMI 1640 for 48 h.
(§2) The levels of VEGF and IL-8 protein secreted by the cells in the medium were determined by VEGF and IL-8 ELISA kits (R&D Systems) according to the manufacturer's instructions. The data were presented as mean±SD from three independent experiments.

[3] = tested on: VEGF; test: VEGF secretion by U937 derived foam cells, ELISA; settings: 24 h, hypoxia, adenosine 100 μM, antagonist 100 nM
Description: as §1, §2

[4] = tested on: foam cell formation from PMA-treated U937 cells; test: Oil red O staining, foam cell formation; settings: oxLDL 50 μg/mL; for Effect on oxLDL and adenosine induced foam cells formation: adenosine 100 μM
Description: as §1
Treatment of PMA-differentiated U937 cells with test agents was performed 2 h before addition of oxLDL. After exposition to oxLDL under hypoxia for 24 h, U937 cells were fixed in phosphate buffered saline-buffered 4% paraformaldehyde solution for 15 min and then air dried. Oil red O (in 60% isopropanol) staining was done for 15 min essentially as described previously by Kalayoglu and Byrne (Infect. Immun., 66: 5067-5072, 1998). Cells were viewed under a bright-field microscope in 100× fields using a Nikon's Eclipse E800 microscope. Foam cells were defined as macrophages in which cytoplasm was filled with Oil red O-stainable lipid droplets.

CCNC(=O)[C@H]1O[C@@H](n2cnc3c(Nc4ccc(OCC(=O)Nc5ccccc5)cc4)ncnc32)[C@H](O)[C@@H]1O [1-deoxy-1-[6-{4-[(phenylcarbamoyl)-methoxy]phenylamino}-9H-purin-9-yl]-N-ethyl-β-D-ribofuranuronamide]
Induction of HIF-1α protein by adenosine receptor agonists ([1]; CHA 10, 100 nM, CGS 21680 500, 1000 nM, A2B agonist 10, 100 nM, CI-IB-MECA 10, 100 nM): able to induce HIF-1α protein

CCCn1c(=O)c2[nH]c(-c3cc(OCC(=O)Nc4ccc5c(c4)OCO5)nn3C)nc2n(CCC)c1=O [MRE-2029F20, N-benzo[1,3]dioxol-5-yl-2-[5-(1,3-dipropyl-2,6-dioxo-2,3,6,7-tetrahydro-1H-purin-8-yl)-1-methyl-1H-pyrazol-3-yl-oxy]-acetamide]
Block of the effect of the adenosine A2B receptor agonist (1 μM) on IL-8 secretion [2]: completely blocked | Block of adenosine induced IL-8 increase ([2]; hypoxia, adenosine 100 μM, antagonist 100 nM): blocked | Antagonism of adenosine induced HIF-1α protein accumulation [1]: partially antagonized | Reduction of adenosine induced VEGF increase [3]: strongly reduced | Effect on oxLDL and adenosine induced foam cells formation ([4]; antagonist 100 nM): blocked the foam cells formation; also recorded: inhibition of foam cell formation

CCCn1cc2c(nc(NC(=O)Nc3ccc(OC)cc3)n3nc(-c4ccco4)nc23)n1 [MRE-3008F20, 5-[[(4-methoxyphenyl)amino]carbonyl]amino-8-propyl-2-(2-furyl)-pyrazolo[4,3-e]-1,2,4-triazolo[1,5-c]pyrimidine]
Antagonism of adenosine induced HIF-1α protein accumulation [1]: partially antagonized | Reduction of adenosine induced VEGF increase [3]: strongly reduced | Effect on oxLDL and adenosine induced foam cells formation ([4]; antagonist 100 nM): inhibition of foam cell formation; also recorded: blocked the foam cells formation

Nc1nc2c(cnn2CCc2ccccc2)c2nc(-c3ccco3)nn12 [SCH 58261]
Antagonism of adenosine induced HIF-1α protein accumulation [1]: partially antagonized | Reduction of adenosine induced VEGF increase [3]: inhibited to lesser extent

COc1ccccc1NC(=O)Nc1nc(-c2cccnc2)nc2ccccc12 [VUF 5574]
Effect on oxLDL and adenosine induced foam cells formation ([4]; antagonist 10 nM): blocked the foam cells formation; also recorded: inhibition of foam cell formation

Nc1ncnc2c1ncn2[C@@H]1O[C@H](CO)[C@@H](O)[C@H]1O [adenosine]
Foam cells (Oil red O) on top of oxLDL ([4]; 24 h, 100 μM): increased
